Results on one compound are retold here after US12398128B2, “Physics-driven discovery of novel small therapeutic compounds for use as a BCL-2 inhibitor” (BAHCESEHIR UNIVERSITESI, priority 2021, dated 2025).

The test system of this experiment is HCT-116 colon cancer cell line. Briefly: MTT cell proliferation assay on HCT-116 cells. The format is cell-based. Here is the method:
For cell culture experiments various cancer cell lines, HCT-116 colon cancer, U87-MG glial tumor, MCF7 breast cancer cell lines were used. Cells were seeded with high glucose DMEM medium (Biosera) supplemented with 10% FBS (Gibco) and 1× penicillin/streptomycin (Multicell). Twenty-four hours prior to molecule treatment, 10,000 cells were seeded into each well of 24-well cell culture plates. Molecules were used by preparing 4 mM stock solution in DMSO (Amresco). For molecule treatment, molecule stock solutions were diluted in DMEM with 10% FBS and added onto cells in each corresponding well. Final concentration of vehicle DMSO was 2% at maximum. Therefore, the vehicle group in experiments only included maximum of 2% DMSO concentration. We calculated the number of cells to be seeded to make sure that none of the cells reaches more than 60% confluency during the treatment period, as higher plate confluency levels would slow down cell proliferation independently from the molecule treatment.
Values of half-maximal inhibitory concentration were (IC50) determined by MTT cell proliferation assays. Different concentrations of molecules ranging between 10^-9 to 10^-4 M were tested on HCT-116 cell lines with single treatment. 570 nm absorbance values were recorded and IC50 values were calculated by dose response-inhibition curves and nonlinear regression analysis on GraphPad Prism 8 software. For cell proliferation assays we performed five days experiments and repeated experiments at least three times with all cell lines. […] Therefore, three days results were presented. MTT analysis were performed on 24-well plates with initially 1×10^4 cells/well, grown overnight, and then treated with the selected molecules with different concentrations for at least 3 days. Following the initial incubation day, molecules were added and after incubation with MTT at 37° C. for 4 hours, formazan was solubilized with DMSO (Sigma-Aldrich, St. Louis, USA) and absorbance was measured at 570 nm. […] The IC50 value of compound of formula I was determined to be 22 μm (FIG. 1).

Molecules are shown by their SMILES.

As for `O=C(CSc1nc2ccc(N3C(=O)c4ccccc4C3=O)cc2s1)c1ccc(-c2ccccc2)cc1` [compound of formula I], the “cell morphology of treated HCT-116 cells” value (HCT-116 cells treated with compound versus vehicle group) is reported as “apoptotic cell structures”. Moreover, where the note is “HCT-116 cells, MTT, cell viability over time, vehicle max 2% DMSO”, the “proliferation of HCT-116 cells versus vehicle group (FIG. 1)” value is recorded as “reduced proliferation”. Further, the IC50 (Homo sapiens, 72 h, HCT-116 cells, single treatment, 10^-9 to 10^-4 M, 570 nm absorbance, three days results, read-out: IC50 (half-maximal inhibitory concentration), MTT cell proliferation assay) stood at 22 µM.
